# Test results: paper PMC12214536 (Nature Communications, 2025)
# System: A. fumigatus OE::sltA
# Format: cell-based, Aspergillus fumigatus
substance,measurement,value
caspofungin,susceptibility of the sltA overexpression strain compared to wild-type,comparable susceptibility to CAS
colistin,more tolerance of the sltA overexpression strain compared to wild-type,15%
